According to publication PMC6277434, “Discovery of a potent HMG-CoA reductase degrader that eliminates statin-induced reductase accumulation and lowers cholesterol” (Nature Communications, 2018):
Where “and” joins values, the source holds several entries; their conditions need not be identical. Identical values can stand only once.

Legend:
HMGCR (TM1-8)-GFP = target: T1, HMGCR (TM1-8)-GFP (Cricetulus griseus, UniProt P00347); experiment: HMGCR (TM1-8)-GFP fluorescent assay (high-content imaging) in CHG cells; conditions: for Mean (HMGCR (TM1-8)-GFP signal relative to 0 μM = 100): Figure 4 source data
T1 sequence (P00347 1-346): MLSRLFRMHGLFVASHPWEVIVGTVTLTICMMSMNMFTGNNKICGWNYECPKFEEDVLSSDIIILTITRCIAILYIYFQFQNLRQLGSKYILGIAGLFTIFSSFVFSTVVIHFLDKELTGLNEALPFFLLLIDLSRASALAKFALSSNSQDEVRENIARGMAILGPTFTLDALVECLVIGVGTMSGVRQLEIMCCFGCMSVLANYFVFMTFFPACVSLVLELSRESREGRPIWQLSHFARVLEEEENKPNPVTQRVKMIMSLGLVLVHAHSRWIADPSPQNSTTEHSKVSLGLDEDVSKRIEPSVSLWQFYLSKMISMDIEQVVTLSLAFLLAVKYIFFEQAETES
Method: We thus generated a cell line stably expressing the transmembrane domain of HMGCR fused with green fluorescent protein (GFP) as a reporter (HMGCR (TM1-8)-GFP) (Fig. 2a).
CHO-7 cells were transfected with pCMV-HMGCR (TM1-8)-GFP using FuGENE HD. Twenty-four hours, cells were switched to medium B supplemented with 5% FBS and selected in the presence of 1 mg ml^−1 G418 for 2 weeks. Surviving colonies were isolated and confirmed for GFP expression by immunoblotting and immunofluorescence. The resulting CHO-7/HMGCR (TM1-8)-GFP stable cell line (CHG) was maintained in medium B supplemented with 5% FBS and 200 μg ml^−1 G418.
CHG cells were treated as described in figure legends. Briefly, cells were seeded at day 0 in 96-well black plate (3904, Corning) at a density of 1.5 × 10^4 cells per well, in medium B containing with 5% LPDS. Day 1, corresponding compounds were added as figure legends described in medium B with 5% LPDS, 1 μM lovastatin, 50 μM sodium mevalonate for 16 h. Then cells were fixed with 4% paraformaldehyde for 20 min, washed with PBS for three times, and stained with 2 μg ml^−1 Hoechst 33342.
The fluorescent images (GFP and Hoechst channel) were captured using an Operatta High-Content Imaging System (PerkinElmer) with a ×20 objective. The cytoplasmic GFP fluorescence was measured with the Harmony Software (PerkinElmer). Five random selected filed per well were captured, and about 3000 cells were used to determine the mean cytoplasmic GFP fluorescent intensity per cell after subtracting background GFP intensity. The average GFP intensity of DMSO-treated cells was defined as 100.

HMGCR = target: T2, HMGCR (Cricetulus griseus, UniProt P00347); experiment: HMGCR ubiquitination assay in CHO-7 cells; type: cell-based, Chinese hamster
T2 construct: endogenous in cells; host or cells: CHO-7, CHG, SRD-13A, SRD-15
T2 sequence (P00347 1-887): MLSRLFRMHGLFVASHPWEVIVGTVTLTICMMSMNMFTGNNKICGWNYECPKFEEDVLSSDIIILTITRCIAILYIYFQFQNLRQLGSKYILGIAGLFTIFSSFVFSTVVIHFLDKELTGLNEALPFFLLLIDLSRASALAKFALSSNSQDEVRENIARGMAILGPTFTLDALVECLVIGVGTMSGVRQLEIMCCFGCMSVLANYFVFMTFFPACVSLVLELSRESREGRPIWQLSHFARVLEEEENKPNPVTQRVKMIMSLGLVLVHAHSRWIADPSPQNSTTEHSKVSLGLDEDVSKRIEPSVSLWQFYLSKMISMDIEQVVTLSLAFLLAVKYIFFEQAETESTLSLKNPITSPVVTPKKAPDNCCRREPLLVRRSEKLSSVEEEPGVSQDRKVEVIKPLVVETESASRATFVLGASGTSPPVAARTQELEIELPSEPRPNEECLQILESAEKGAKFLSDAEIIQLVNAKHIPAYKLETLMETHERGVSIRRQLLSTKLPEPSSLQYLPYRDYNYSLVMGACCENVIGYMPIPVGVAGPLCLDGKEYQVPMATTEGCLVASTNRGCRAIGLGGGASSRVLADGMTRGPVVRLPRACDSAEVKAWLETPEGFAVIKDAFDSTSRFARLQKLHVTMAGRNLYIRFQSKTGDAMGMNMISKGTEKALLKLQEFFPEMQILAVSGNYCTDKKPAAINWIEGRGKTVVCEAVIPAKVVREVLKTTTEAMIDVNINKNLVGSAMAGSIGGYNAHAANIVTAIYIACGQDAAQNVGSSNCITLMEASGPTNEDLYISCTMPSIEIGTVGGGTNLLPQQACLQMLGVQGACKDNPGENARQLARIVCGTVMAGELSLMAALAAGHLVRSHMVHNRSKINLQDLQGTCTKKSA
Method: To detect endogenous HMGCR ubiquitination, CHO-7 cells were treated as described in figure legends. Two 10-cm dishes of cells were harvested and lysed in 600 μl of immunoprecipitation buffer (1× PBS, 1% Triton X-100, 5 mM EDTA, 5 mM EGTA) supplemented with protease inhibitor cocktail, 0.1 mM Leupeptin, 10 μM MG-132, and 10mM N-ethylmaleimide. Lysates were pre-cleared with 3 μg of normal rabbit IgG (D110502, Sangon) and 40 μl of protein A/G plus-agarose (sc-2003, Santa Cruz Biotechnology) for 1 h at 4 °C, followed by immunoprecipitation with 10 μg of rabbit polyclonal anti-HMGCR and 100 μl of protein A/G plus-agarose overnight at 4 °C. After washing with immunoprecipitation buffer containing protease inhibitor cocktail for three times, immunoprecipitates were eluted with 2× loading buffer (75 mM Tris-HCl, pH 6.8, 50 mM NaCl, 6% SDS, 15% glycerol, and 0.02% bromophenol blue) at 95 °C for 10 min. Supernatants were then mixed with equal volume of membrane protein solubilization buffer and incubated at 37 °C for 30 min. Samples were finally subjected to immunoblotting as described above.
To assay for the ubiquitination of overexpressed HMGCR protein, cells were first transfected with indicated plasmids. A similar protocol was employed except that lysates were immunoprecipitated with 40 μl of anti-Flag M2 affinity gel (A2220, Sigma-Aldrich).

LXR signaling pathway = experiment: RT-qPCR of LXR target genes (SREBP-1c, ABCA1, ABCG8) in Huh-7 cells; type: cell-based, human; conditions: 16 h
Method: Cells were treated as described in corresponding figure legends, then total RNA was extracted from cells or mouse livers using TRI Reagent (T9424, Sigma-Aldrich). Equal amounts of RNA from cells or mice receiving the same treatment were pooled were used for cDNA synthesis with oligo dT and reverse transcriptase MLV (Promega). Gene expression was analyzed by quantitative real-time PCR on a Stratagene Mx30005PTM Q-PCR Systems. The primers used were listed in Supplementary Tables 2–4. […]
pathway. a-c Huh-7 cells were treated with indicated compounds for 16 h and then harvested for total RNA isolation and RT-qPCR. Cells treated with LXR agonist T0901317 w ere used as positive controls. The relative mRNA levels of SREBP -1c (a), ABCA1 (b) and ABCG8 (c) were quantified . GAPDH was the reference gene. The relative mRNA level in DMSO-treated cells was defined as 1. Data are from 3 independent experiments and presented as mean ± SD.
(1 picture or pasted object on this page, not shown here)

Hmgcr mRNA = experiment: RT-qPCR of hepatic Hmgcr mRNA of gavaged mice; type: in vivo; conditions: C57BL/6J mice, 60 mg/kg/day gavage once daily 7 days
Method: Cells were treated as described in corresponding figure legends, then total RNA was extracted from cells or mouse livers using TRI Reagent ([…], Sigma-Aldrich). Equal amounts of RNA from cells or mice receiving the same treatment were pooled were used for cDNA synthesis with oligo dT and reverse transcriptase MLV (Promega). Gene expression was analyzed by quantitative real-time PCR on a Stratagene […] Systems. The primers used were listed in Supplementary Tables 2-4. Male C57BL/6 mice (8-week-old) were obtained from Shanghai Laboratory Animal Company (SLAC) (Shanghai, China). Male Ldlr^-/- mice (8-week-old) were obtained from Nanjing Biomedical Research Institute of Nanjing University (Nanjing, China). […] Mice were maintained in a pathogen-free environment and kept on a 12-h light/dark schedule. Mice were gavaged as described in figure legends with saline containing 0.5% methyl cellulose and 0.5% Tween-80. All mice were used in accordance with the guidelines approved by the Institutional Animal Care and Use Committee of Wuhan University.

Compound	Mean (HMGCR (TM1-8)-GFP signal relative to 0 μM = 100) (HMGCR (TM1-8)-GFP; compound 0.156 μM)	Mean (HMGCR (TM1-8)-GFP signal relative to 0 μM = 100) (HMGCR (TM1-8)-GFP; compound 0.313 μM)	Mean (HMGCR (TM1-8)-GFP signal relative to 0 μM = 100) (HMGCR (TM1-8)-GFP; compound 0.625 μM)	Mean (HMGCR (TM1-8)-GFP signal relative to 0 μM = 100) (HMGCR (TM1-8)-GFP; compound 1.25 μM)	Mean (HMGCR (TM1-8)-GFP signal relative to 0 μM = 100) (HMGCR (TM1-8)-GFP; compound 2.5 μM)	Mean (HMGCR (TM1-8)-GFP signal relative to 0 μM = 100) (HMGCR (TM1-8)-GFP; compound 5 μM)	Mean (HMGCR (TM1-8)-GFP signal relative to 0 μM = 100) (HMGCR (TM1-8)-GFP; compound 10 μM)	potency (EC50) relative to 24,25-DHL (HMGCR (TM1-8)-GFP; more potent than 24,25-DHL)	potency (EC50) relative to cholesterol (HMGCR (TM1-8)-GFP; more potent than cholesterol)	ubiquitination of endogenous HMGCR (HMGCR; CHO-7, with 10 μM MG-132, 3 h)	ubiquitination of transfected HMGCR (HMGCR; cells co-expressing wild-type HMGCR and Insig-1)	expression of LXR target genes (SREBP-1c, ABCA1 and ABCG8) mRNA (LXR signaling pathway)	hepatic Hmgcr mRNA level, mean (Hmgcr mRNA; vehicle = 1)	hepatic Hmgcr mRNA level, single values (Hmgcr mRNA; vehicle = 1)	hepatic Hmgcr mRNA level, mean (Hmgcr mRNA; vehicle = 1, listed as lovastatin)
C=CCC(O)(CC=C)CCCC(C)C1CCC2C3C(O)C=C4C(C)(C)C(O)CCC4(C)C3CCC12C (stereo not drawn) [Cmpd 81]	80.6979	58.3802	35.2515	17.0524	14.0516	2.6212	2.9162	~4 fold	approximately 74 fold	dose-dependent increase	markedly increase	did not induce the expression			
CC[C@H](C)C(=O)O[C@H]1C[C@@H](C)C=C2C=C[C@H](C)[C@H](CC[C@@H]3C[C@@H](O)CC(=O)O3)[C@H]21 [Lovastatin, lovastatin]													2.5 ± 0.2 fold and 2.537 fold	2.5 and 2.78 and 2.33	2.5 fold
